In US9243068B2, “Combination of SEMA-4D inhibitors and immunomodulators to inhibit tumors and metastases” (Vaccinex, Inc., priority 2013, dated 2016):

Test system: Colon26 tumor cells
Assay: Colon26 tumor growth, combination with cyclophosphamide (Example 8)
Type: in vivo
Conditions: Colon26 in Balb/c mice; anti-SEMA4D 50 mg/kg IP weekly; cyclophosphamide 50 mg/kg IP days 12 and 20
Experimental: Experimental Design. 5×10^5 Colon26 tumor cells were implanted subcutaneously into the flank of female Balb/c mice. […] There were 20 mice per group. Tumors were measured with calipers 3×/week starting 5 days post implant. Animals were sacrificed when tumor volume reached 1000 mm^3.
Tumor growth was measured by calipers and measurements were used to calculate tumor volume using the formula (w^2×I)/2, where w=width, smaller measurement, and l=length, in mm, of the tumor.
Regression is the lack of palpable tumor, defined by a tumor measuring <50 mm^3 for at least two consecutive measurements.

For O=P1(N(CCCl)CCCl)NCCCO1 (stereo not shown) [cyclophosphamide], the “Tumor Growth Delay (TGD)” value was 96%.
